As a reminder, the AUC(0-t) is the area under the concentration-time curve up to a stated or last time point. A low value points to low exposure. The term AUC(0-inf) denotes total exposure, with the tail of the curve extrapolated. A lower AUC(0-inf) goes with less exposure. A word on the CL/F: it is clearance divided by bioavailability, as obtained after extravascular dosing. As usually defined, the Cmax is the maximum level reached in the sampled fluid or tissue. A word on the Tmax: it is the time at which the peak concentration occurs. As a reminder, the Vd/F is the volume of distribution divided by bioavailability. The term half-life denotes the time needed for the level to fall by half in the phase considered. The inhibition is the share of the control response that was lost under treatment. A higher inhibition goes with strong suppression.

We go through four compounds from publication PMC11144398, “Crizotinib inhibits the metabolism of tramadol by non-competitive suppressing the activities of CYP2D1 and CYP3A2” (PeerJ, 2024).

Data set [1] is described as follows: Pharmacokinetics of tramadol and O-desmethyl tramadol in SD rats with or without crizotinib. The note with it: male, Sprague-Dawley, rat, serum, po, 20 mg/kg; for CL/F: CLz/F; for Vd/F: Vz/F; for half-life: t1/2z. An excerpt:
Ultra-performance liquid chromatography-tandem mass spectrometry (UPLC-MS/MS) was utilized to measure the concentration of both tramadol and O-desmethyl tramadol. Separation was achieved using a Waters Acquity UPLC BEH C18 column, with dimensions of 2.1 mm × 50 mm and 1.7-µm particle size (Waters Corp., Milford, MA, USA), and quantitation was completed using a Waters XEVO TQD triple quadruple mass spectrometer. The mobile phase was composed of 0.1% formic acid (A) and ACN (B), and the gradient elution was carried out with a flow rate of 0.4 mL/min, following the procedure: 90–10% A (0–1.4 min), 10–90% A (1.4–1.5 min), and 90% A (1.5–2.0 min). Positive mode was used to detect the analytes with the following transitions: m/z 264.2 →58.0, m/z 250.2 →58.2, and m/z 285.0 →154.0 for tramadol, O-desmethyl tramadol, and diazepam (used as an internal standard, IS), respectively. The collision energy was 20 V for tramadol and O-desmethyl tramadol, and 25 V for diazepam. The standard for tramadol and O-desmethyl tramadol were dissolved in a small amount of DMSO (the concentration was 1 mg/mL) then diluted with acetonitrile (the final concentration was 1 ng/mL–1,000 ng/mL). Diazepam was diluted with methanol gradually to 500 ng/mL).
SD male rats (280 ± 15 g) were purchased from the Shanghai Animal Experimental Center. Before the experiment, the rats were kept in the animal room for two weeks with adequate water and food in order to adapt to the new environment. The room temperature was kept at 20–25 °C and the humidity was kept at 50%–65%. The change period of light and dark conditions was 12 h, which simulates the change of day and night. All animal experiments were approved by the Ethics Committee of Wenzhou Medical University (Approval number: xmsq2022-0621).
Generally speaking, only when at least five or more animals are involved in the experiment can the results be convincing. Thus, twenty SD rats were randomly divided into four groups with five animals per group: group A received a single dose of 20 mg/kg of tramadol; group B received a single dose of 45 mg/kg of crizotinib and 20 mg/kg of tramadol; group C received multiple doses of 0.5% carboxymethylcellulose sodium salt (CMC-Na) for 7 days and a single dose of 20 mg/kg of tramadol; and group D received multiple doses of 45 mg/kg of crizotinib for 7 days and a single dose of 20 mg/kg of tramadol. Prior to the experiment, all rats were fasted for 12 h but allowed free access to water. Once the experiment began, 0.5% CMC-Na and crizotinib were administered to groups C and D for 7 days, respectively, then to groups A and B on the last day of the experiment. After 30 min, all rats were orally administered 20 mg/kg of tramadol. Blood samples were collected from the tail vein at 5 min, 15 min, 30 min, 1 h, 2 h, 3 h, 4 h, 6 h, 8 h, 10 h, 12 h, and 24 h following tramadol administration. […] The samples were centrifuged at 2400 × g for 10 min to obtain serum. Each 50 µL serum was mixed with 150 µL ACN and 20 µL IS (500 ng/mL). After vortexing for 2 min and centrifugation at 16200 × g for 10 min at 4 °C, the supernatant was obtained, then we used UPLC-MS/MS analysis to detect the concentration of tramadol and O-desmethyl tramadol. After the experiment, all the animals were euthanized by 5% isoflurane inhalation anesthesia.
The Michaelis–Menten, IC50, and Lineweaver-Burk plots were generated using GraphPad Prism 6.0 software (GraphPad Software, Boston, MA, USA) with corresponding values for Km, IC50, and Ki (inhibition constant).

For data set [2], the system named is opioid receptors. Set-up: method as in earlier work. The note with it: ref Allegaert et al., 2015, De La Gastine et al., 2022, Gillen et al., 2000, Gong et al., 2014; cited from earlier work.
In data set [3] the test system is tramadol metabolism (O-desmethyl tramadol production) in rat liver microsomes. Description: Liver microsomal incubation assay: inhibition of tramadol metabolism (O-desmethyl tramadol production) in RLM. The format is in vitro ADME. The note with it: rat, pH 7.4, inhibitory rate on tramadol metabolism (production of O-desmethyl tramadol). As for the experimental part:
All the substance meet the requirements for analysis.
To obtain the Michaelis kinetic parameters of tramadol in RLM and HLM, a 200 µL incubation system was established containing 2 µL RLM or HLM (0.2 mg/mL), 186 µL 1xPBS buffer (pH = 7.4), 2 µL tramadol (10–500 µM), and 10 µL NADPH (1 mM). The mixture was pre-incubated for 5 min without NADPH in a water bath shaking at 37 °C. Then, NADPH was added to initiate the reaction, and the mixture was incubated for another 30 min. The reaction was terminated by adding 400 µL of cold ACN and 20 µL of IS (500 ng/mL).
For drug-interaction screening, 100 µM of each drug (1.6 µL) was added to the system, and added PBS to the final volume of 200 uL. Tramadol concentration was set at 60 µM according to the Km.
To determine the half-maximal inhibitory concentration (IC50), the concentration of crizotinib was set at 0.01, 0.1, 1, 10, 25, 50, and 100 µM, while the concentration of tramadol was constant at 60 µM in RLM or 100 µM in HLM (according to Km).
All data were presented as mean ± SD (standard deviation).
A general note: Liver microsomes are vesicles of endoplasmic reticulum, rich in cytochrome P450 enzymes.

Setting [4] is: Group A: single oral 20 mg/kg tramadol alone.
Where [5] appears, read: Group B: 20 mg/kg tramadol with crizotinib 45 mg/kg single dose.
Setting [6] is: Group C: 0.5% CMC-Na for 7 days, then single 20 mg/kg tramadol.
The mark [7] stands for this setting: Group D: crizotinib 45 mg/kg for 7 days, then single 20 mg/kg tramadol.

`CN(C)C[C@H]1CCCC[C@]1(O)c1cccc(O)c1` [O-desmethyl tramadol]: in data set [1] (setting [4]), the AUC(0-t) was 934 ± 101 ng·h/mL, the AUC(0-inf) was found to be 937 ± 101 ng·h/mL, the CL/F was 360 mL/min/kg and the Cmax came out at 229 ± 56.1 ng/mL. Also, in data set [1] (setting [4]), the Tmax was determined as 0.8 ± 0.27 h, the Vd/F worked out at 91.3 ± 12 L/kg and the half-life was 2.93 ± 0.09 h. Further, in data set [1] (setting [5]), the exposure AUC(0-t) amounted to 928 ± 145 ng·h/mL, the AUC(0-inf) is 981 ± 125 ng·h/mL, the apparent clearance CL/F was 344 mL/min/kg and the highest level (Cmax) was 172 ± 72.1 ng/mL. In data set [1] (setting [5]), the Tmax was 0.7 ± 0.27 h, the Vd/F is 170 ± 112 L/kg and the half-life is 5.68 ± 3.69 h. In addition, in data set [1] (setting [6]), the AUC(0-t) amounted to 1170 ng·h/mL, the AUC(0-inf) worked out at 1180 ng·h/mL, the CL/F was 288 mL/min/kg and the Cmax is 292 ± 55.1 ng/mL. Besides, in data set [1] (setting [6]), the time to peak (Tmax) worked out at 1.2 ± 0.45 h, the Vd/F was determined as 72.5 ± 25.4 L/kg and the half-life is 2.86 ± 0.71 h. In data set [1] (setting [7]), this compound had an area under the curve AUC(0-t) of 1230 ng·h/mL, an AUC(0-inf) of 1250 ng·h/mL, an apparent clearance (CL/F) of 268 mL/min/kg and a maximum concentration (Cmax) of 182 ± 65.8 ng/mL. Moreover, in data set [1] (setting [7]), the Tmax stood at 0.9 ± 0.65 h, the Vd/F was 94.7 ± 26.4 L/kg and the half-life is 4.06 ± 0.91 h. Besides, the “affinity relative to tramadol” value in data set [2] is “more than 700 times”.
In the case of `COc1cccc(C2(O)CCCCC2CN(C)C)c1` (centres unmarked) [Tramadol, tramadol], in data set [1] (setting [4]), the AUC(0-t) is 770 ± 169 ng·h/mL, the AUC(0-inf) came to 786 ± 165 ng·h/mL, the CL/F is 440 mL/min/kg and the peak concentration (Cmax) is 202 ± 82.7 ng/mL. In data set [1] (setting [4]), the Tmax was 0.5 h, the Vd/F was 168 ± 88.2 L/kg and the half-life was 4.22 ± 1.68 h. In data set [1] (setting [5]), the AUC(0-t) came to 1120 ng·h/mL, the total exposure AUC(0-inf) turned out to be 1220 ng·h/mL, the CL/F was 298 mL/min/kg and the highest level (Cmax) was 245 ± 38.3 ng/mL. Further, in data set [1] (setting [5]), the time of peak concentration (Tmax) was 0.6 ± 0.22 h, the Vd/F was 154 ± 96.5 L/kg and the half-life was 6.91 ± 5.73 h. For the same compound, in data set [1] (setting [6]), the AUC(0-t) was determined as 777 ± 233 ng·h/mL, the AUC(0-inf) was determined as 790 ± 226 ng·h/mL, the CL/F is 459 mL/min/kg and the maximum concentration (Cmax) is 246 ± 57.6 ng/mL. Also, in data set [1] (setting [6]), the Tmax came out at 1.6 ± 0.55 h, the Vd/F was determined as 307 ± 309 L/kg and the half-life was 6.69 ± 5.14 h. In data set [1] (setting [7]), this compound showed an AUC(0-t) of 1650 ng·h/mL, an AUC(0-inf) of 1650 ng·h/mL, an apparent clearance (CL/F) of 214 mL/min/kg and a Cmax of 294 ± 85.2 ng/mL. Also, in data set [1] (setting [7]), the Tmax came out at 0.9 ± 0.65 h, the Vd/F is 51.4 ± 19.1 L/kg and the half-life is 2.74 ± 0.56 h.
On to `CNC(=O)c1cc(Oc2ccc(NC(=O)Nc3ccc(Cl)c(C(F)(F)F)c3)c(F)c2)ccn1` [regorafenib], for which the inhibition at 30 min, 100 µM in data set [3] is 83.7%.
The compound `CNC(=O)c1cc(Oc2ccc(NC(=O)Nc3ccc(Cl)c(C(F)(F)F)c3)cc2)ccn1` [sorafenib] gave an inhibition at 30 min, 100 µM in data set [3] of 96.7%.
